Measurements reported in patent EP4310072A1, “ULTRAVIOLET ABSORBER, COMPOSITION, COSMETIC PRODUCT, AND PROCESS FOR PREPARING COSMETIC PRODUCT” (MFCI (Huanggang) Co., Ltd., priority 2021, dated 2023).

Columns and labels:
Format in all cases: physicochemical
[1] = Second dissolution experiment: sample stirred into the oil phase of an SPF 25 sunscreen oil, 6% DHHB; details: for increase rate of dissolution time: added concentration 6% versus 3%; for Sample dissolution time: added concentration 6%, 25°C, stirring rate 150 r/min, oil phase
Description: (§1) In this dissolution experiment, the agglomeration degree of the ultraviolet absorbers in the above examples and comparative examples was evaluated, and each sample of a certain mass was added into an oil phase and stirred at room temperature (25°C) at a stirring rate of 150 r/min for dissolution. The dissolution experiment was carried out on raw materials for preparation of a sunscreen oil with an SPF value of 25. Table 15 Raw material table
Except that DHHB is a solid, all other components are liquid oils. A production process includes: sequentially adding various components into an oil pot, and enabling a stirring function until the components are completely dissolved. Table 16 Sample property test result table

[2] = First dissolution experiment: sample stirred into the oil phase of an SPF 25 sunscreen oil, 3% DHHB; details: added concentration 3%, 25°C, stirring rate 150 r/min
Description: as §1, with “with a sun protection factor (SPF)” for “with an SPF”, “Table 13” for “Table 15”
Except that DHHB is a solid, all other components are liquid oils. A production process includes: sequentially adding various components into an oil pot, and enabling a stirring function until the components are completely dissolved. Table 14 Sample property test result table

[3] = Particle size testing by laser diffraction (Malvern MS2000 laser particle size analyzer, dispersant water); details: for Particle size distribution d(0.1) (integer) / Particle size distribution d(0.9) (integer): rounded to integer, Tables 14 and 16; for αd5: Vd5/Vd100, distribution coefficient of particles with a particle size of 5 µm; for αd10: Vd10/Vd100, distribution coefficient of 10 µm particles; for Consistency / Span (β) / Specific surface area / Surface area-average particle size D[3,2] / Volume-average particle size D[4,3]: laser diffraction, dispersant water; for d(0.9): maximum particle size, cumulative distribution 90%; for d(0.5): median particle size, cumulative distribution 50%; for d(0.1): minimum particle size, cumulative distribution 10%
Description: The particle size distribution and characteristics of the ultraviolet absorber described herein, such as the minimum particle size d(0.1), the d(0.9) and the consistency are determined by a laser diffraction method, and determination conditions are as follows: • particle size analyzer: Malvern MS2000 laser particle size analyzer; • name of an injector: Hydro 2000MU (A); • analysis mode: general; • particle size range: 0.02-2000 µm; • name of a dispersant: water.

SMILES | increase rate of dissolution time [1] | Sample dissolution time [1] [min] | Sample dissolution time [2] [min] | Particle size distribution d(0.1) (integer) [3] | Particle size distribution d(0.9) (integer) [3] [µm] | difference between D[3,2] and D[4,3] [3] [µm] | αd5 [3] | αd10 [3] | Consistency [3] | Span (β) [3] | Specific surface area [3] [m^2/g] | Surface area-average particle size D[3,2] [3] [µm] | Volume-average particle size D[4,3] [3] [µm] | d(0.9) [3] [µm] | d(0.5) [3] [µm] | d(0.1) [3] [µm] | Particle size distribution d(0.1) (integer) ([3]; in µm)
CCCCCCOC(=O)c1ccccc1C(=O)c1ccc(N(CC)CC)cc1O [Comparative Example 2, reference compound] | about 50% | 202 | 134 | 850 (±20) | 1000 |  |  |  |  |  |  |  |  |  |  |  | 
CCCCCCOC(=O)c1ccccc1C(=O)c1ccc(N(CC)CC)cc1O [Example 3, 2-(4-N,N-diethylamino-2-hydroxybenzoyl) hexyl benzoate] |  | < 5 | < 5 |  | 78 | 17.543 | 0.019 | 0.107 | 0.691 | 2.23 | 0.295 | 20.356 | 37.899 | 77.626 | 30.410 | 9.803 | 10
CCCCCCOC(=O)c1ccccc1C(=O)c1ccc(N(CC)CC)cc1O [Example 1, 2-(4-N,N-diethylamino-2-hydroxybenzoyl) hexyl benzoate] |  |  |  |  | 58 | 11.727 | 0.0160 | 0.111 | 0.638 | 2.008 | 0.331 | 18.113 | 29.840 | 57.575 | 23.866 | 9.647 | 
CCCCCCOC(=O)c1ccccc1C(=O)c1ccc(N(CC)CC)cc1O [Comparative Example 1] | about 38% | 208 | 151 |  | 519 | 128.616 | 0.005 | 0.122 | 2.44 | 10.995 | 0.258 | 23.263 | 151.879 | 518.950 | 51.970 | 10.517 | 11
CCCCCCOC(=O)c1ccccc1C(=O)c1ccc(N(CC)CC)cc1O [Example 2, 2-(4-N,N-diethylamino-2-hydroxybenzoyl) hexyl benzoate] |  | < 5 | < 5 |  | 52 | 8.865 | 0.006 | 0.104 | 0.578 | 1.869 | 0.325 | 18.463 | 27.328 | 51.867 | 22.470 | 9.862 | 10
CCCCCCOC(=O)c1ccccc1C(=O)c1ccc(N(CC)CC)cc1O [Example 4, 2-(4-N,N-diethylamino-2-hydroxybenzoyl) hexyl benzoate] |  | < 5 | < 5 |  | 63 | 11.215 | 0.002 | 0.074 | 0.62 | 1.998 | 0.284 | 21.149 | 32.364 | 62.903 | 25.939 | 11.066 | 11
CCCCCCOC(=O)c1ccccc1C(=O)c1ccc(N(CC)CC)cc1O [Example 5, 2-(4-N,N-diethylamino-2-hydroxybenzoyl) hexyl benzoate] |  | < 5 | < 5 |  | 43 | 21.881 | 0.037 | 0.095 | 0.596 | 1.944 | 0.281 | 21.390 | 43.271 | 43.271 | 21.390 | 10.747 | 10
